# Test results taken from article PMC12440824, “Chimeric deubiquitinase engineering reveals structural basis for specific inhibition of the mitophagy regulator USP30” (Nature Structural & Molecular Biology, 2025).
# Like-named read-outs stand apart in the source and are kept apart here.
# Columns and labels:
# USP30^ch2 = USP30^ch2 (Homo sapiens, UniProt Q70CQ3); test: Ub–RhoG cleavage enzyme inhibition assay, chimera 2; type: biochemical; set-up: scale not given here; conditions: mean n=3
# Method: (§1) Enzyme kinetics were performed in black, low-volume, non-binding-surface 384-well plates. […] Next, 10 µl of 2× enzyme solution was added in triplicate to the plate. The reaction was started by adding 10 µl of 2× substrate solution. […] Inhibitor solution (4×) was added to 4× enzyme solution to create a 2× enzyme–inhibitor mixture. Next, 10 µl of this 2× enzyme–inhibitor mixture was then added to the plate in triplicate, and the plate was incubated at room temperature for 90 min. The reaction was started by adding 10 µl of 2× Ub–RhoG substrate. […] Data were analyzed with GraphPad Prism.
# USP30 = conditions: read-out: Cellular ABPP IC50 / cellular target engagement, cited from earlier work
# USP30^ch1 = USP30^ch1 (Homo sapiens, UniProt Q70CQ3); test: Ub–RhoG cleavage enzyme inhibition assay, chimera 1; type: biochemical; set-up: scale not given here; conditions: mean n=3
# Method: as §1
# USP30^ch3 F157A = USP30^ch3 F157A (Homo sapiens, UniProt Q70CQ3, F157A, form not given); test: Ub–RhoG cleavage enzyme inhibition assay, chimera 3 F157A; type: biochemical; conditions: mean n=3
# Method: as §1
# USP30^ch3 = USP30^ch3 (Homo sapiens, UniProt Q70CQ3); test: Thermal shift assay, USP30 ch3; type: binding; conditions: 20 μM inhibitor
# Method: The thermal stability of USP30 constructs and effects of either inhibitor or Ub-PA binding were determined by thermal shift assays. Inhibitor, Ub-PA and SYPRO orange dye (Sigma, 5,000× stock in DMSO) solutions were prepared in 1× PBS, 4 mM DTT. Inhibitor/Ub-PA was prediluted to 100 µM, and SYPRO orange dye was prediluted to 50× (from the commercial stock). Mixtures of protein, inhibitor/Ub-PA and SYPRO were prepared with inhibitor/Ub-PA at a final concentration of 20 μM, SYPRO at a final concentration of 4× and protein at a final concentration of 2 μM for c1, 4 μM for ch1, ch4 and c2 and 3 μM for ch2 and ch3. Samples were added in triplicate to a white 96-well PCR plate (Bio-Rad). Fluorescence intensity was monitored (excitation, 450–490 nm; emission, 560–580 nm) at a gradient of 20–90 °C (increment of 0.3 °C, hold for 5 s before read) on a real-time PCR system (Bio-Rad).
# other DUBs = conditions: at 100 µM; cited from earlier work
# [1] = tested on: USP30 constructs (construct 1, chimeras 1–3); test: Ub–RhoG cleavage enzyme inhibition assay, statements across constructs; type: biochemical, human; conditions: addition of hydroxyl group at the tert-butyl group
# Method: Enzyme kinetics were performed in black, low-volume, non-binding-surface 384-well plates. For activity assays, 2× Ub–RhoG substrate (final concentration, 50 nM) and 2× enzyme (final concentration, 0.25–32 nM) were prepared in 20 mM HEPES, pH 8.0, 50 mM NaCl, 5 mM DTT, 0.1 mg ml^−1 BSA. Next, 10 µl of 2× enzyme solution was added in triplicate to the plate. The reaction was started by adding 10 µl of 2× substrate solution. For enzyme inhibition assays, 2× substrate (final concentration, 100 nM), 4× enzyme (final concentration, 0.1 nM) and 4× inhibitor (final concentration, 1.6 pM–1.6 μM) were prepared in 50 mM Tris-HCl, pH 8.0, 0.05 mg ml^−1 BSA, 4 mM DTT, 0.01% Tween-20. Inhibitor solution (4×) was added to 4× enzyme solution to create a 2× enzyme–inhibitor mixture. Next, 10 µl of this 2× enzyme–inhibitor mixture was then added to the plate in triplicate, and the plate was incubated at room temperature for 90 min. The reaction was started by adding 10 µl of 2× Ub–RhoG substrate. Substrate cleavage was monitored by measurement of cleaved RhoG fluorescence (excitation, 492 nm; emission, 525 nm) every 30 s for 1 h at 25 °C on a Tecan Spark plate reader. Data were analyzed with GraphPad Prism.
# [2] = tested on: overexpressed USP30 F157A, I154A, A162S in HEK293 cells; test: Cellular ubiquitin probe competition, overexpressed USP30 F157A, I154A, A162S; type: cell-based, human; conditions: 2 µM compound, 2 h
# Method: HEK293 cells (8 × 10^5 cells per well) were seeded in six-well plates and cultivated for 24 h. PEI transfecting reagent (Polysciences) was pre-incubated for 10 min with the vectors in 200 μl Opti-MEM medium (2 µg DNA per well). Cells were transfected and incubated for 48 h. Following the treatment with either compounds or DMSO in fresh medium for an additional 2 h, cells were processed as described below. Cells were seeded at 8 × 10^5 cells per well and grown for 48 h. […] The medium was aspirated, and cells were washed once with ice-cold PBS. Cells were collected by scraping in lysis buffer (150 mM NaCl, 250 mM sucrose, 50 mM Tris, pH 8.0, 5 mM TCEP) supplemented with EDTA-free complete protease inhibitor cocktail and benzonase. Suspended cells were homogenized by 12 bursts of a microtip probe sonicator (Branson Sonifier 450) at 10% amplitude with pulses of 1 s on ice. Remaining cell debris was separated by centrifugation (20,817g, 5 min, 4 °C). […] After incubation for 10 min at room temperature, reactions were quenched by the addition of 4× reducing LDS sample buffer. Samples were resolved by SDS–PAGE and further analyzed via western blot. Using a Trans-Blot Turbo system (Bio-Rad, 1.0 A, 25 V, 30 min), proteins were blotted onto a nitrocellulose membrane. […]
# Sequence of USP30^ch2 (Q70CQ3 64-502): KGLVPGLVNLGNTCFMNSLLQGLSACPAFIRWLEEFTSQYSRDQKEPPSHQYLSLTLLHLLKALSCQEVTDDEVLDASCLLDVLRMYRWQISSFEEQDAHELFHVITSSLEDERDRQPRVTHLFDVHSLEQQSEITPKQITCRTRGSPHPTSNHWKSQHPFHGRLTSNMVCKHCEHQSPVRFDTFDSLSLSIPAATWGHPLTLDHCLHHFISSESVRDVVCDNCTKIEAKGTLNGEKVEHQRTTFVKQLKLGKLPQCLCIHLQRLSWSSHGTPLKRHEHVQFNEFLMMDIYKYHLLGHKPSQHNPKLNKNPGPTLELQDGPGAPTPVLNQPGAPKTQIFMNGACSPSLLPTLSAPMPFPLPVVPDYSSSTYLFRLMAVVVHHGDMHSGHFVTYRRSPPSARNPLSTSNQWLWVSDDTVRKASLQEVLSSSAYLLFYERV
# Sequence of USP30^ch2 (P54578 248-318 partner): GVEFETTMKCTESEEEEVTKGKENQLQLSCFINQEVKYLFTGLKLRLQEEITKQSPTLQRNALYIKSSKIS
# Sequence of USP30^ch1 (Q70CQ3 64-502): as the sequence (Q70CQ3 64-502) above
# Sequence of USP30^ch1 (Q93009 325-395 partner): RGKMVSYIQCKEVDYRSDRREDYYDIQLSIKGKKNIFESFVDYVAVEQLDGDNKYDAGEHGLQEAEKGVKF
# Sequence of USP30^ch3 F157A (Q70CQ3 64-502 F157A, form open): as the sequence (Q70CQ3 64-502) above, with F94A counted along it
# Sequence of USP30^ch3 F157A (P54578 248-318 partner, form open): as the sequence (P54578 248-318 partner) above
# Sequence of USP30^ch3 F157A (Q9P2H5 821-846 partner, form open): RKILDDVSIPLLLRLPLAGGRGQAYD
# Sequence of USP30^ch3 (Q70CQ3 64-502): as the sequence (Q70CQ3 64-502) above
# Sequence of USP30^ch3 (P54578 248-318 partner): as the sequence (P54578 248-318 partner) above
smiles,measurement,setting,value
CC(C)(C)NS(=O)(=O)c1ccc(NC(=O)[C@H](Cc2ccccc2)NC(=O)c2ccc(F)cc2)cc1 [compound 39],USP30ch2 activity,USP30^ch2; inhibitor 0.0015625 nM,0.9681
same,USP30ch2 activity,USP30^ch2; inhibitor 0.00625 nM,1.022
same,USP30ch2 activity,USP30^ch2; inhibitor 0.025 nM,0.8647
same,USP30ch2 activity,USP30^ch2; inhibitor 0.1 nM,0.7206
same,USP30ch2 activity,USP30^ch2; inhibitor 0.39 nM,0.5237
same,USP30ch2 activity,USP30^ch2; inhibitor 1.56 nM,0.3579
same,USP30ch2 activity,USP30^ch2; inhibitor 6.25 nM,0.1977
same,USP30ch2 activity,USP30^ch2; inhibitor 25 nM,0.0871
same,USP30ch2 activity,USP30^ch2; inhibitor 100 nM,0.04077
same,USP30ch2 activity,USP30^ch2; inhibitor 400 nM,0.01798
same,USP30ch2 activity,USP30^ch2; inhibitor 1600 nM,0.005204
same,IC50,USP30; listed as Compound 39,< 0.05 µM
same,IC50,USP30,0.01 to 0.05 µM
same,USP30ch1 activity,USP30^ch1; inhibitor 0.0015625 nM,0.9737
same,USP30ch1 activity,USP30^ch1; inhibitor 0.00625 nM,0.9837
same,USP30ch1 activity,USP30^ch1; inhibitor 0.025 nM,0.8913
same,USP30ch1 activity,USP30^ch1; inhibitor 0.1 nM,0.7529
same,USP30ch1 activity,USP30^ch1; inhibitor 0.39 nM,0.5726
same,USP30ch1 activity,USP30^ch1; inhibitor 1.56 nM,0.3796
same,USP30ch1 activity,USP30^ch1; inhibitor 6.25 nM,0.2212
same,USP30ch1 activity,USP30^ch1; inhibitor 25 nM,0.1115
same,USP30ch1 activity,USP30^ch1; inhibitor 100 nM,0.04824
same,USP30ch1 activity,USP30^ch1; inhibitor 400 nM,0.02114
same,USP30ch1 activity,USP30^ch1; inhibitor 1600 nM,0.0058
same,USP30ch3 F157A activity,USP30^ch3 F157A; inhibitor 0.001563 nM,0.978
same,USP30ch3 F157A activity,USP30^ch3 F157A; inhibitor 0.00625 nM,1.043
same,USP30ch3 F157A activity,USP30^ch3 F157A; inhibitor 0.025 nM,0.9706
same,USP30ch3 F157A activity,USP30^ch3 F157A; inhibitor 0.1 nM,0.9583
same,USP30ch3 F157A activity,USP30^ch3 F157A; inhibitor 0.39 nM,0.8963
same,USP30ch3 F157A activity,USP30^ch3 F157A; inhibitor 1.56 nM,0.8924
same,USP30ch3 F157A activity,USP30^ch3 F157A; inhibitor 6.25 nM,0.7707
same,USP30ch3 F157A activity,USP30^ch3 F157A; inhibitor 25 nM,0.6122
same,USP30ch3 F157A activity,USP30^ch3 F157A; inhibitor 100 nM,0.362
same,USP30ch3 F157A activity,USP30^ch3 F157A; inhibitor 400 nM,0.2241
same,USP30ch3 F157A activity,USP30^ch3 F157A; inhibitor 1600 nM,0.2066
same,"Tm in presence of compound, USP30^ch3",USP30^ch3,61.5 °C
same,inhibition of other DUBs in a panel of recombinant enzymes,other DUBs,no other DUB being inhibited
CC(C)(CO)NS(=O)(=O)c1ccc(NC(=O)[C@H](Cc2ccccc2)NC(=O)c2ccc(F)cc2)cc1 [NK036],decrease in potency relative to compound 39,[1],about one order of magnitude
same,"inhibition of overexpressed USP30 F157A, I154A, A162S in cells",[2],refractory to inhibition
